Experimental data published in publication PMC8041284, “Tunable Methacrylamides for Covalent Ligand Directed Release Chemistry” (Journal of the American Chemical Society, 2021).
Where a SMILES comes first, the peptide text is derived from it. [ ]: non-standard residue; d: D form. Dip = N[C@H](C(=O)O)C(c1ccccc1)c1ccccc1

The compounds below were run against BTK (Homo sapiens, UniProt Q06187) (assay: biochemical). Details: read-out: BTK inhibition (%).
BTK, sequence (Q06187 402-655 limits assumed): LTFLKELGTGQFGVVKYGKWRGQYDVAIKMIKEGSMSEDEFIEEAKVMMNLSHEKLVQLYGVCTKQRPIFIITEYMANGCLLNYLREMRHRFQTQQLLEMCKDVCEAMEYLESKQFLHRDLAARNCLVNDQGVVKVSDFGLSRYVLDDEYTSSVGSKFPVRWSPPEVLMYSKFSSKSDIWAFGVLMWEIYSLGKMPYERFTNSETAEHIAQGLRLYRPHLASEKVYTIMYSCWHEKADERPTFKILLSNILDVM

Work on CC1=C[C@@H]2C(=O)[C@]3(C=C(C)[C@H](O)[C@@]3(O)[C@@H]1O)[C@H](C)C[C@@H]1[C@H]2C1(C)C [PCM-0216603] yielded an inhibition at 10 µM of 3.9%.

Same assay, conditions: read-out: BTK inhibition (%), 0.75 uM BTK, […] probe 3l, 15 min preincubation

Going from CN(C)C/C=C/C(=O)Nc1cc2c(Nc3ccc(F)c(Cl)c3)ncnc2cc1O[C@H]1CCOC1 [PCM-0094907] to Cc1cccc(Nc2nc(N[C@@H]3CCCC[C@@H]3N)ncc2C(N)=O)c1 [PCM-0215814], the inhibition at 10 µM falls from 84.8% to 82.8%.

First: CC(=O)N1CCC(Nc2cc(C(=O)NC[C@H](O)CN3CCc4ccccc4C3)ncn2)CC1 [PCM-0215901]
Second: CC(=O)N1CCN(c2ccc(NC(=O)Cc3cnc(-c4ccnc(F)c4)c(C)c3)nc2)CC1 [PCM-0215890]
The inhibition at 10 µM of the first is higher: -0.8% for the first, -10.8% for the second.

Compared with CC(C)CCC[C@@H](C)[C@H]1CC[C@H]2C3=CC=C4C[C@@H](O)CC[C@]4(C)[C@H]3CC[C@]12C [PCM-0216561], CCCCCC(=O)O[C@]1(C(C)=O)CC[C@H]2[C@@H]3CCC4=CC(=O)CC[C@]4(C)[C@H]3CC[C@@]21C [PCM-0214832] is lower in inhibition at 10 µM: 18.5% for the first, -23.3% for the second.

Compared with Cc1nc(C(=O)NCC(=O)O)c(O)c2ccc(Oc3ccccc3)cc12 [PCM-0094891], O=C(O)COc1nn(Cc2ccccc2)c2ccccc12 [PCM-0216238] is higher in inhibition at 10 µM: -5.4% for the first, -3.1% for the second.

Going from O=C1C(c2c(O)[nH]c3ccccc23)=Nc2ccccc21 [PCM-0094833] to O=C1C(=O)N(Cc2ccc(Cl)c(Cl)c2)c2ccccc21 [PCM-0095429], the inhibition at 10 µM falls from 11% to 9.3%.

Going from CNC(=O)Nc1ccc(-c2nc(N3CC4CCC(C3)O4)c3cnn(C4CCC5(CC4)OCCO5)c3n2)cc1 [PCM-0095327] to c1ccc2c(Oc3nc(Nc4ccc(N5CCOCC5)cc4)c4ncn(C5CCCCC5)c4n3)cccc2c1 [PCM-0215227], the inhibition at 10 µM rises from 15.9% to 17.9%.

Going from COCCNCc1ccc(-c2cc3nccc(Oc4ccc(NC(=O)C5(C(=O)Nc6ccc(F)cc6)CC5)cc4F)c3s2)nc1 [PCM-0215838] to O=C(O)c1ccc(NC(=O)[C@H](Cc2ccc(O)cc2)NC(=O)c2ccccc2)cc1 [PCM-0215250], the inhibition at 10 µM falls from 81.4% to -10.1%.

Going from Cc1nc2cccc(N)c2c(=O)n1C1CCC(=O)NC1=O (stereo not drawn) [PCM-0215785] to CS(=O)(=O)c1cccc(CNc2nc(Nc3ccc4c(c3)CCC(=O)N4)ncc2C(F)(F)F)c1 [PCM-0064954], the inhibition at 10 µM rises from 2.3% to 55.2%.

Compared with CC(C)Oc1ccc(-c2nn([C@@H](C)c3oc4ccc(F)cc4c(=O)c3-c3cccc(F)c3)c3ncnc(N)c23)cc1F [PCM-0215802], O=c1cc(-c2ccc(O)cc2)oc2cccc(O)c12 [PCM-0216294] is higher in inhibition at 10 µM: -2.1% for the first, 32.4% for the second.

Compared with Cc1nc2n(c(=O)c1CCN1CCC(c3noc4cc(F)ccc34)CC1)CCCC2O (stereo not drawn) [PCM-0065046], N[C@@H]1CCCCN(c2c(F)cc3c(=O)c(C(=O)O)cn(C4CC4)c3c2Cl)C1 [PCM-0095545] is lower in inhibition at 10 µM: 6% for the first, -15.3% for the second.

Going from COc1cc2oc(-c3ccc(O)cc3)cc(=O)c2c(O)c1[C@@H]1O[C@H](CO)[C@@H](O)[C@H](O)[C@H]1O[C@@H]1O[C@H](CO)[C@@H](O)[C@H](O)[C@H]1O [PCM-0216416] to C[C@@H]1O[C@@H](OC[C@H]2O[C@@H](Oc3c(-c4ccc(OCCO)c(OCCO)c4)oc4cc(OCCO)cc(O)c4c3=O)[C@H](O)[C@@H](O)[C@@H]2O)[C@H](O)[C@H](O)[C@H]1O [PCM-0214656], the inhibition at 10 µM falls from -15.4% to -19.5%.

Compared with CCS(=O)(=O)N1CCC(C(C)n2c(C)c(C(=O)NCc3c(OC)cc(C)[nH]c3=O)c3ccccc32)CC1 (stereo not drawn) [PCM-0215486], COC(=O)C1=C(C)NC(C)=C(C(=O)O[C@@H]2CCCN(Cc3ccccc3)C2)[C@@H]1c1cccc([N+](=O)[O-])c1 [PCM-0214706] is higher in inhibition at 10 µM: -3.1% for the first, 80.9% for the second.

Compared with O=C(NO)c1cnc(NC2(c3ccccc3)CC2)nc1 [PCM-0215891], O=C(O)c1ccccc1O [PCM-0090179] is lower in inhibition at 10 µM: -10.8% for the first, -16.3% for the second.

Going from COC(=O)N(C)c1c(N)nc(-c2nn(Cc3ccccc3F)c3ncccc23)nc1N [PCM-0215574] to Cc1c(Nc2ncccc2C(=O)O)cccc1C(F)(F)F [PCM-0086423], the inhibition at 10 µM rises from -25.5% to -9%.

Going from O=c1ccoc2cc(O)ccc12 [PCM-0216563] to O=c1c(O)c(-c2ccc(O)c(O)c2)oc2cc(O)ccc12 [PCM-0094846], the inhibition at 10 µM rises from -2.8% to 46.7%.

First: Nc1ccc(S(=O)(=O)Nc2ccccn2)cc1 [PCM-0086480]
Second: Clc1ccc(Nc2nnc(Cc3ccncc3)c3ccccc23)cc1 [PCM-0086134]
The inhibition at 10 µM of the first is higher: -13.6% for the first, -14.5% for the second.

Going from OCC1(O)OC[C@@H](O)[C@H](O)[C@@H]1O (stereo partly drawn) [PCM-0216581] to O=C1C2CCN(CC2)C1(CO)CO [PCM-0215683], the inhibition at 10 µM falls from 6.9% to 0.8%.

First: C[C@@H]1CC[C@]2(C(=O)O[C@@H]3O[C@H](CO)[C@@H](O)[C@H](O)[C@H]3O)CC[C@]3(C)C(=CC[C@@H]4[C@@]5(C)CC[C@H](O)[C@@](C)(CO)[C@@H]5CC[C@]43C)[C@@H]2[C@]1(C)O [PCM-0216572]
Second: C=C1C[C@@]23CC[C@H]4[C@@](C)(CCC[C@@]4(C)C(=O)O)[C@@H]2CC[C@]1(O[C@@H]1O[C@H](CO)[C@@H](O)[C@H](O)[C@H]1O[C@@H]1O[C@H](CO)[C@@H](O)[C@H](O)[C@H]1O)C3 [PCM-0216480]
The inhibition at 10 µM of the first is higher: -2.3% for the first, -3.9% for the second.

Going from CC(C)NC[C@@H](C(=O)N1CCN(c2ncnc3c2[C@H](C)C[C@H]3O)CC1)c1ccc(Cl)cc1 [PCM-0095420] to S=C(NCc1ccc2c(c1)OCO2)N1CCN(c2ncnc3c2oc2ccccc23)CC1 [PCM-0094997], the inhibition at 10 µM rises from -4.1% to 28.3%.

Compared with CC(C)=CCC[C@](C)(O)[C@H]1CC[C@]2(C)[C@@H]1[C@H](O)C[C@@H]1[C@@]3(C)CC[C@H](O[C@@H]4O[C@H](CO)[C@@H](O)[C@H](O)[C@H]4O[C@@H]4O[C@H](CO)[C@@H](O)[C@H](O)[C@H]4O)C(C)(C)[C@@H]3CC[C@]12C [PCM-0216610], CCC(C)CC(C)CCCCCCCCC(=O)N[C@H]1C[C@@H](O)[C@@H](NCCN)NC(=O)[C@@H]2[C@@H](O)CCN2C(=O)[C@H]([C@H](O)CCN)NC(=O)[C@H]([C@H](O)[C@@H](O)c2ccc(O)cc2)NC(=O)[C@@H]2C[C@@H](O)CN2C(=O)[C@H]([C@@H](C)O)NC1=O (stereo partly drawn) [PCM-0215354] is lower in inhibition at 10 µM: 16.2% for the first, 11.1% for the second.

Compared with NC(=O)c1cnc(N[C@@H]2CCCC[C@@H]2N)nc1Nc1cccc(-n2nccn2)c1 [PCM-0095619], CCn1c(C(=O)N(C2CC2)C2CC2)cc2c3c(ncn3C)c(Nc3cc(C)n(C)n3)nc21 [PCM-0215708] is lower in inhibition at 10 µM: 70.3% for the first, 3.4% for the second.

Compared with O=C1C(Cl)=C(N2CCOCC2)C(=O)N1c1ccc(Cl)c(Cl)c1 [PCM-0215236], O=C(Nc1c(Cl)cncc1Cl)c1ccc(OC(F)F)c(OCC2CC2)c1 [PCM-0095310] is higher in inhibition at 10 µM: -0.8% for the first, 3.1% for the second.

First: O=C(N/N=C/c1cc(O)c(O)cc1O)c1cc2ccccc2cc1O [PCM-0215496]
Second: O=C(O)/C=C/c1ccc(O)c(O)c1 [PCM-0064590]
The inhibition at 10 µM of the first is higher: 77.2% for the first, -21.8% for the second.

First: COc1cc(-c2cc(-c3ccc(N4CCNCC4)cc3)cnc2C)cc(OC)c1OC [PCM-0215462]
Second: CCC1=C[C@@H]2CN(C1)Cc1c([nH]c3ccccc13)[C@@](C(=O)OC)(c1cc3c(cc1OC)N(C)[C@H]1[C@@](O)(C(=O)OC)[C@H](OC(C)=O)[C@]4(CC)C=CCN5CC[C@]31[C@@H]54)C2 [PCM-0214792]
The inhibition at 10 µM of the first is lower: -19.3% for the first, 14% for the second.

First: O=C(O)C(=O)CBr [PCM-0216160]
Second: O=C(O)/C=C/CCCCCCCO [PCM-0214957]
The inhibition at 10 µM of the first is higher: 6.2% for the first, 3.4% for the second.

Going from C/C=C/C=C/C(=O)O [PCM-0215158] to COc1ccc(C(=O)O)cc1O [PCM-0215975], the inhibition at 10 µM falls from 0% to -13.9%.

Going from CC(=O)OCC1=C(C(=O)O)N2C(=O)[C@@H](NC(=O)Cc3cccs3)[C@H]2SC1 [PCM-0214820] to COC(=O)c1ccc([C@H]2C3Nc4ccccc4C3C[C@H](C(=O)OC)N2C(=O)CCl)cc1 (stereo partly drawn) [PCM-0214584], the inhibition at 10 µM rises from -12.5% to 35.5%.

First: Cc1oncc1C(=O)Nc1ccc(C(F)(F)F)cc1 [PCM-0065349]
Second: Cc1ccc2oc(=O)ccc2c1 [PCM-0215023]
The inhibition at 10 µM of the first is lower: -5.5% for the first, -3.9% for the second.

Compared with NCCCC[C@H](NC(=O)[C@@H](NC(=O)[C@H](Cc1c[nH]c2ccccc12)NC(=O)[C@H](CCCCN)NC(=O)[C@H](CCCCN)NC(=O)[C@H](Cc1c[nH]c2ccccc12)NC(=O)[C@H](Cc1c[nH]c2ccccc12)NC(=O)[C@H](CCCCN)NC(=O)[C@@H](N)CCCCN)C(c1ccccc1)c1ccccc1)C(N)=O [PCM-0215623] (H-KKWWKKW[Dip]K-NH2), O=C(CCCCCCC(=O)Nc1ccccc1)NO [PCM-0086223] is higher in inhibition at 10 µM: -11.1% for the first, -9% for the second.

Compared with CCN(CC)C(=O)/C(C#N)=C/c1cc(O)c(O)c([N+](=O)[O-])c1 [PCM-0085960], O=C(O)c1ccc(Cl)cc1O [PCM-0214870] is lower in inhibition at 10 µM: 38.1% for the first, -10.9% for the second.

Compared with Nc1ncnc2c1nc(Br)n2[C@@H]1O[C@@H]2COP(=O)(O)O[C@H]2[C@H]1O [PCM-0215506], C/C1=C\CC[C@]23O[C@H]2[C@@H](OC3=O)c2c(C)coc2C1 [PCM-0216481] is lower in inhibition at 10 µM: 1.5% for the first, -16.2% for the second.

First: CN(C)CC/C=C1/c2ccccc2COc2ccc(CC(=O)O)cc21 [PCM-0086250]
Second: O=C(O)COc1ccc(Br)cc1/C=C1\SC(=S)N(Cc2cccnc2)C1=O [PCM-0216029]
The inhibition at 10 µM of the first is higher: 8.3% for the first, 7.7% for the second.

Going from O=C1O[C@H]([C@@H](O)CO)C(O)=C1OP(=O)(O)O [PCM-0215970] to CNC[C@H](O)c1ccc(O)c(O)c1 [PCM-0065121], the inhibition at 10 µM falls from -4.3% to -9.3%.

First: COc1ccc2c(c1)/C(=C/c1cnc[nH]1)C(=O)N2 [PCM-0101915]
Second: CCCC[C@H](CC)COC(=O)/C=C/c1ccc(OC)cc1 [PCM-0090405]
The inhibition at 10 µM of the first is higher: 47.6% for the first, 6.2% for the second.

Compared with CC(C)c1nc(N(C)S(C)(=O)=O)nc(-c2ccc(F)cc2)c1/C=C/[C@@H](O)C[C@@H](O)CC(=O)O [PCM-0090418], CC(C)Cc1ccc([C@@H](C)C(=O)NS(C)(=O)=O)cc1 [PCM-0215882] is lower in inhibition at 10 µM: -4.7% for the first, -24.8% for the second.

Oc1ccc([C@H]2COc3cc(O)ccc3C2)cc1 [PCM-0095319] was tested, and the inhibition at 10 µM was -6.2%.
